Three molecules from paper PMC5352556 (Journal of chemical neuroanatomy, 2016) can be followed below.

What all share (assay type): cell-based
The test system of one test is rat Pmat (rPmat). Put plainly: Concentration dependence of rPmat-mediated substrate uptake in MDCK/rPmat cells. The following applies: rPmat-mediated uptake, MDCK/rPmat minus mock, 3 min, 37 °C, pH 7.4.
The target in the next test is T1, human PMAT (hPMAT) (Homo sapiens, UniProt Q7RTT9).
T1 sequence (Q7RTT9 1-530): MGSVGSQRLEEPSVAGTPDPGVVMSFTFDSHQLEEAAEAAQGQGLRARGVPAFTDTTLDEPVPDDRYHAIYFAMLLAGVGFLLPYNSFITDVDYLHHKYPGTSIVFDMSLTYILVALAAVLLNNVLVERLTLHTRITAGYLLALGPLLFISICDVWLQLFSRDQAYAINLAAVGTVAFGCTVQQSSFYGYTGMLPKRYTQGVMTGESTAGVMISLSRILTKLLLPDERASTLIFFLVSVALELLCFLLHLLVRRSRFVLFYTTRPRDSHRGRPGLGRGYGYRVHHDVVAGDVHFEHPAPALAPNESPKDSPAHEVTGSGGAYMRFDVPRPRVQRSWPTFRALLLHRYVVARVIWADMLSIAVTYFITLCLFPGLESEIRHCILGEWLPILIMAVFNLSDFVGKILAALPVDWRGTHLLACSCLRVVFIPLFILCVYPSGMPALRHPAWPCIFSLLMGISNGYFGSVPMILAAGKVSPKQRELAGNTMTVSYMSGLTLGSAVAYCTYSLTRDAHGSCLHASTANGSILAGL
Put plainly: Concentration dependence of hPMAT-mediated substrate uptake in MDCK/hPMAT cells. As to conditions: hPMAT-mediated uptake, MDCK/hPMAT minus mock, 3 min, 37 °C, pH 7.4.

For a further test, the target named is T2, mouse Pmat (mPmat) (Mus musculus, UniProt Q8R139).
T2 sequence (Q8R139 1-528): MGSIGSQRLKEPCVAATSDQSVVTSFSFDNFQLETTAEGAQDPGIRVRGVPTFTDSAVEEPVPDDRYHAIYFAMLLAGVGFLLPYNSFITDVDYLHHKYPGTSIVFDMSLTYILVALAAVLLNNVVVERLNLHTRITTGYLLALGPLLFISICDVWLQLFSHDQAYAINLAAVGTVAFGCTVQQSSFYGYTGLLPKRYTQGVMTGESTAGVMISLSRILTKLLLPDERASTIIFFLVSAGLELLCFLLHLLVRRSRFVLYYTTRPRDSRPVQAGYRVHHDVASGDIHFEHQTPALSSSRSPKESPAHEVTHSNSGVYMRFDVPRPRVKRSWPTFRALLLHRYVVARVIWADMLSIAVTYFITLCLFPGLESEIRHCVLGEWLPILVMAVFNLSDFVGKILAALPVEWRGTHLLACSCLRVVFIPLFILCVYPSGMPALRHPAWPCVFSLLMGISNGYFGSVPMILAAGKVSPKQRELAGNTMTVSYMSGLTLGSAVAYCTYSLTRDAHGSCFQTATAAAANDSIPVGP
As to conditions: mPmat-mediated uptake, Flp293/mPmat minus mock, 2 min, 37 °C, pH 7.4.

Where a name gives a salt, the structure may show the parent alone.

With `NCCc1c[nH]c2ccc(O)cc12` [Serotonin, 5-hydroxy-[1,2-^3H]tryptamine creatinine sulfate], the Michaelis-Menten constant (Km) (commonly the substrate concentration at which the rate is half of its maximum) with rat Pmat (rPmat) came out at 82.9 ± 21.2 µM; at human PMAT (hPMAT), 116 ± 27 µM. For the same molecule, in the test on rat Pmat (rPmat), the Vmax turned out to be 1.26 ± 0.12 nmol/min/mg protein.
With `[3H]c1c([3H])c(CCN)c([3H])c(O)c1O` [Dopamine, 3,4-dihydroxy-[2,5,6-^3H]phenylethylamine], the results for the Km in the test with rat Pmat (rPmat) and at human PMAT (hPMAT) were 271 ± 50 µM and 201 ± 34 µM, respectively. The values for the Vmax in the test with rat Pmat (rPmat), with rat Pmat (rPmat) (listed as dopamine) and on human PMAT (hPMAT) were 0.750 ± 0.049 nmol/min/mg protein, 0.750 ± 0.049 nmol/min/mg protein and 1.43 ± 0.08 nmol/min/mg protein, respectively.
For the molecule `C[n+]1ccc(-c2ccccc2)cc1` [MPP^+, 1-methyl-4-phenylpyridinium], the Km turned out to be 70.2 ± 12.3 µM in the test on rat Pmat (rPmat), 49.5 ± 0.1 µM at mouse Pmat (mPmat) and 33.7 ± 6 µM at human PMAT (hPMAT). The Vmax amounted to 0.210 ± 0.011 nmol/min/mg protein in the test on rat Pmat (rPmat), 1.59 ± 0.068 nmol/min/mg protein at mouse Pmat (mPmat) and 0.490 ± 0.190 nmol/min/mg protein at human PMAT (hPMAT).
